Some results are limits rather than exact numbers.

Results on two molecules are retold here after patent US20230183243A1, “HETEROARYL DERIVATIVES AND PHARMACEUTICAL COMPOSITION COMPRISING SAME AS ACTIVE INGREDIENT” (VORONOI INC., priority 2019, published 2023).

Assay [1] deals with T1, ABL1(F317L)-nonphosphorylated (Homo sapiens, UniProt P00519, F317L).
T1 construct: purchased DiscoverX Corp. (ScanMAX Kinase panel, commissioned)
The assay can be described thus: ScanMAX Kinase panel (DiscoverX). The class given is binding. To be noted: read-out: % Cont @ 1 μM. As for the experimental part:
(§1) Specifically, the enzyme (kinase) selectivity of the compound of Example 7 selected from the Example compounds of the present invention was measured by commissioning DiscoverX Corp., and an experiment was performed using a panel for ScanMAX™ Kinase analysis.
(§2) In this case, the concentration of a drug treated with the enzyme was set at 1 μM in DMSO, and percent control (% control) was defined in the same manner as in the following Expression 1.
(§3) (Example compound−Positive control)/(Negative control−Positive control)×100 [Expression 1]
(§4) Wherein the positive control represents a compound having a percent control of 0%, and the negative control represents a compound having a percent control of 100% in DMSO. For the enzyme selectivity of the present invention, the compound was also judged to have activity against the corresponding enzyme when the percent control for each of the enzymes was <30% (i.e., less than 30%).
(§5) Further, to evaluate the inhibitory activity of the compound according to the present invention against more enzymes, an experiment was performed as follows. Specifically, the enzyme (kinase) selectivity of the compound of Example 64 selected from the Example compounds of the present invention was measured by commissioning DiscoverX Corp., and an experiment was performed using a panel for ScanMAX™ Kinase analysis. In this case, the concentration of a drug treated with the enzyme was set at 1 μM in DMSO, and the percent control (% control) were defined in the same manner as in the following Expression 1.
(§6) Wherein the positive control represents a compound having a percent control of 0%, and the negative control represents a compound having a percent control of 100% in DMSO. For the enzyme selectivity of the present invention, the compound was also judged to have activity against the corresponding enzyme when the percent control for each of the enzymes was <35% (i.e., less than 35%).

Another assay addresses T2, GRK4 (Homo sapiens, UniProt P32298).
T2 construct: purchased DiscoverX Corp. (ScanMAX Kinase panel, commissioned)
The assay can be described thus: ScanMAX Kinase panel (DiscoverX). The class given is binding. To be noted: read-out: % Cont @ 1 μM. Here is the method: as §1, §2, §3, §4, §5, §6

The target of the next assay is T3, JNK1 (Homo sapiens, UniProt P45983).
T3 construct: purchased DiscoverX Corp. (ScanMAX Kinase panel, commissioned)
T3 sequence (P45983 whole entry): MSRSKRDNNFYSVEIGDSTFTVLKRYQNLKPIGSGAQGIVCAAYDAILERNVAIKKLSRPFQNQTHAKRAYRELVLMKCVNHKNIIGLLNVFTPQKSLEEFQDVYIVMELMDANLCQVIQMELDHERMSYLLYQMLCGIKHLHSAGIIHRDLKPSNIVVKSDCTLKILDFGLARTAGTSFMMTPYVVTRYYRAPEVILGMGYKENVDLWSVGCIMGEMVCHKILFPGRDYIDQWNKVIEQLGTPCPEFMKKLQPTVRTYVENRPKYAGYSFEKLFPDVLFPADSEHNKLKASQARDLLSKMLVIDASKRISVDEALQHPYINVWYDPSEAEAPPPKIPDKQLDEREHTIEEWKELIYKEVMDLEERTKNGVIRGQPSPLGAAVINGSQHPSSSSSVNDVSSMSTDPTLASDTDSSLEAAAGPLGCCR
Nature of the assay: ScanMAX Kinase panel (DiscoverX). The class given is binding. As for the experimental part:
as §1, §2, §3, §4, §5, §6

The next assay deals with T4, JNK2 (Homo sapiens, UniProt P45984).
T4 construct: purchased DiscoverX Corp. (ScanMAX Kinase panel, commissioned)
T4 sequence (P45984 whole entry): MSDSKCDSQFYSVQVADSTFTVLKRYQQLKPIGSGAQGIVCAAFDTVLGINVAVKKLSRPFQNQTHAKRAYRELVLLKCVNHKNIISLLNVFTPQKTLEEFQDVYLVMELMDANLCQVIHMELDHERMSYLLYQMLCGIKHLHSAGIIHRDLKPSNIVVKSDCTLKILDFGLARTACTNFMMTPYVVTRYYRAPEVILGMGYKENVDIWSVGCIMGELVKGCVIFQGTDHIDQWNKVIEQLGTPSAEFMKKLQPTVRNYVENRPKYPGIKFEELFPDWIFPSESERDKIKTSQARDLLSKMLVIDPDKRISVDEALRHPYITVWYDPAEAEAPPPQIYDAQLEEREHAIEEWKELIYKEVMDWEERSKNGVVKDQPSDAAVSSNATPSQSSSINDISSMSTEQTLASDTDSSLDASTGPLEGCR
The assay can be described thus: ScanMAX Kinase panel (DiscoverX). The class given is binding. As for the experimental part:
as §1, §2, §3, §4, §5, §6

The next assay concerns the target T5, JNK3 (Homo sapiens, UniProt P53779).
T5 construct: purchased DiscoverX Corp. (ScanMAX Kinase panel, commissioned)
Nature of the assay: ScanMAX Kinase panel (DiscoverX). The class given is binding. As for the experimental part:
as §1, §2, §3, §4, §5, §6

In a further assay the target is T6, LRRK2(G2019S) (Homo sapiens, UniProt Q5S007, G2019S).
T6 construct: purchased DiscoverX Corp. (ScanMAX Kinase panel, commissioned)
T6 sequence (Q5S007 whole entry G2019S): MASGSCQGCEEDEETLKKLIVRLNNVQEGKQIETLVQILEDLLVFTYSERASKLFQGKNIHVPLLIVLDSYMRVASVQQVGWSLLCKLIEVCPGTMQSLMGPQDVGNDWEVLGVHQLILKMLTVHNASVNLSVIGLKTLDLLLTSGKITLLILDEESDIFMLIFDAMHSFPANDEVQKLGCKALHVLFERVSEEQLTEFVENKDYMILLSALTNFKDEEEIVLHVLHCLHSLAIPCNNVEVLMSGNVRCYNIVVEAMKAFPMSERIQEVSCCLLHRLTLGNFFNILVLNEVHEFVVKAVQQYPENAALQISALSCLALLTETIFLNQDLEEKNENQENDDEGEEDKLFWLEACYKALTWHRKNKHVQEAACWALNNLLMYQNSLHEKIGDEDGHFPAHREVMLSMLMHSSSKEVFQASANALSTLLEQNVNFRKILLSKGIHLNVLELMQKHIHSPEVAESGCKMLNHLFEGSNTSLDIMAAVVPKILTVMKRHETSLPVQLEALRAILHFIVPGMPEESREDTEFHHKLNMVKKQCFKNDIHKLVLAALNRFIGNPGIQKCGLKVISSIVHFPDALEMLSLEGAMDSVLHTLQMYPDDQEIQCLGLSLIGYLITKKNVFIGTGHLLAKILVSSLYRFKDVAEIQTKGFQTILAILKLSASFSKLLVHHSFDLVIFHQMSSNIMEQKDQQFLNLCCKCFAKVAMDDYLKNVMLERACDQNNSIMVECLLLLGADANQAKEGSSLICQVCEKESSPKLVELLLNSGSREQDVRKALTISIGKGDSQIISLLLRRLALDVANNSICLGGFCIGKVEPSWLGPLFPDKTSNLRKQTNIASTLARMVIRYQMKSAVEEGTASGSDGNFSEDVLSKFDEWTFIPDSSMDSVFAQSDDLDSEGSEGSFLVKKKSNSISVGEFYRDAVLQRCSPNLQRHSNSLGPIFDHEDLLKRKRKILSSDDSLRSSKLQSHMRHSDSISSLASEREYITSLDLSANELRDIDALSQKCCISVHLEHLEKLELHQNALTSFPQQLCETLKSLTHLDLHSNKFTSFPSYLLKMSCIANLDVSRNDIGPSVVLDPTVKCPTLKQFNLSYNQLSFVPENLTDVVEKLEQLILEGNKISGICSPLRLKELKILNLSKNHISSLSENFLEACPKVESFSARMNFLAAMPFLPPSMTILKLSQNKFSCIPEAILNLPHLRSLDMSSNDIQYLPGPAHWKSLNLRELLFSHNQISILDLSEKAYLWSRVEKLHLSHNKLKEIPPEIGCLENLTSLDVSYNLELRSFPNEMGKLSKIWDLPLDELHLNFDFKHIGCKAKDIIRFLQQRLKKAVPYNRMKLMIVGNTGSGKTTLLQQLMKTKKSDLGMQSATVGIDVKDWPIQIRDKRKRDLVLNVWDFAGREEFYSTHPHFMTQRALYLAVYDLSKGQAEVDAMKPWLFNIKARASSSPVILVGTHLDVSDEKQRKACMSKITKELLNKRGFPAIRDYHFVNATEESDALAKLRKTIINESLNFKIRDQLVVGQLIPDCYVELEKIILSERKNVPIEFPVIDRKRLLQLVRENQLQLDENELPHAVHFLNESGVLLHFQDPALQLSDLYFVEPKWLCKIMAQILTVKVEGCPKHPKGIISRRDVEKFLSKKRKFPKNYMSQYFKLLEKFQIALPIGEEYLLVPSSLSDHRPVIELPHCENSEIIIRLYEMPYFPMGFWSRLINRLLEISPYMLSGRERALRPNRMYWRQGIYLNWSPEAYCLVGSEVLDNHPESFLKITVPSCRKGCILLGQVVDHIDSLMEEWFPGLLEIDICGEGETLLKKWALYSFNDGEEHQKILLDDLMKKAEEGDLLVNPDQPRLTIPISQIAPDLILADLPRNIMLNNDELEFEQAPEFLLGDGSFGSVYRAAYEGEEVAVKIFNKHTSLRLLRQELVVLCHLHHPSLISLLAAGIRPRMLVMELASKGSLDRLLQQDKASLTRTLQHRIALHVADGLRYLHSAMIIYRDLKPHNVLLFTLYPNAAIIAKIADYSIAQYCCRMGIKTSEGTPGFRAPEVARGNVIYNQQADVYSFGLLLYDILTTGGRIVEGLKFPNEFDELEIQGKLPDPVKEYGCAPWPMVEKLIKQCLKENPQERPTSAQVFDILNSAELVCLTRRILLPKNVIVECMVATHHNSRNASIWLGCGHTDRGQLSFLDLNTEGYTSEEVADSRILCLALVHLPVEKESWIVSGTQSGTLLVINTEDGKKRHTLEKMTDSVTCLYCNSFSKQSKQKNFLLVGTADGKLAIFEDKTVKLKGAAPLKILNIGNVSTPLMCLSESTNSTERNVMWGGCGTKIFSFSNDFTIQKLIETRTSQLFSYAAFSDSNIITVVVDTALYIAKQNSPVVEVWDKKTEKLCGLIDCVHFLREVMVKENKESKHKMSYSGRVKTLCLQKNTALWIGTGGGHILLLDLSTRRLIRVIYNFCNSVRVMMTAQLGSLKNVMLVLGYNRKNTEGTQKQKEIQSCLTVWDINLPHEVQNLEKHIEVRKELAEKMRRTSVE
The assay can be described thus: ScanMAX Kinase panel (DiscoverX). In kind it is binding. To be noted: read-out: % Cont @ 1 μM. As for the experimental part: as §1, §2, §3, §4, §5, §6

A further assay deals with T7, MAPKAPK2 (Homo sapiens, UniProt P49137).
T7 construct: purchased DiscoverX Corp. (ScanMAX Kinase panel, commissioned)
T7 sequence (P49137 whole entry): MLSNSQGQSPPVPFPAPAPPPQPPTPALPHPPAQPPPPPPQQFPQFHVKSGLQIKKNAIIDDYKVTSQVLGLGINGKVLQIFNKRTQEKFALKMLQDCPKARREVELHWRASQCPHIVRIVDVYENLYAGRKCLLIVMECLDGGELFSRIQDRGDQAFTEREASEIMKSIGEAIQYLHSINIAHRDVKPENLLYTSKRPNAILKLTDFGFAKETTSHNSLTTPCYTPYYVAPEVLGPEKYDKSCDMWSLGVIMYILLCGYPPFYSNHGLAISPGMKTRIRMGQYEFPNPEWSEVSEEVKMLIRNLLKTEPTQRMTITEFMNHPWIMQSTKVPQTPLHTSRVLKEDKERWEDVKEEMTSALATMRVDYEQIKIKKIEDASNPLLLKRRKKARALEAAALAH
The assay can be described thus: ScanMAX Kinase panel (DiscoverX). To be noted: read-out: % Cont @ 1 μM. In kind it is binding. As for the experimental part:
as §1, §2, §3, §4, §5, §6

For another assay, the target named is T8, RIPK5 (Homo sapiens, UniProt Q6XUX3).
T8 construct: purchased DiscoverX Corp. (ScanMAX Kinase panel, commissioned)
Nature of the assay: ScanMAX Kinase panel (DiscoverX). In kind it is binding. To be noted: read-out: % Cont @ 1 μM. Here is the method: as §1, §2, §3, §4, §5, §6

A further assay deals with T9, SRPK3 (Homo sapiens, UniProt Q9UPE1).
T9 construct: purchased DiscoverX Corp. (ScanMAX Kinase panel, commissioned)
T9 sequence (Q9UPE1 whole entry): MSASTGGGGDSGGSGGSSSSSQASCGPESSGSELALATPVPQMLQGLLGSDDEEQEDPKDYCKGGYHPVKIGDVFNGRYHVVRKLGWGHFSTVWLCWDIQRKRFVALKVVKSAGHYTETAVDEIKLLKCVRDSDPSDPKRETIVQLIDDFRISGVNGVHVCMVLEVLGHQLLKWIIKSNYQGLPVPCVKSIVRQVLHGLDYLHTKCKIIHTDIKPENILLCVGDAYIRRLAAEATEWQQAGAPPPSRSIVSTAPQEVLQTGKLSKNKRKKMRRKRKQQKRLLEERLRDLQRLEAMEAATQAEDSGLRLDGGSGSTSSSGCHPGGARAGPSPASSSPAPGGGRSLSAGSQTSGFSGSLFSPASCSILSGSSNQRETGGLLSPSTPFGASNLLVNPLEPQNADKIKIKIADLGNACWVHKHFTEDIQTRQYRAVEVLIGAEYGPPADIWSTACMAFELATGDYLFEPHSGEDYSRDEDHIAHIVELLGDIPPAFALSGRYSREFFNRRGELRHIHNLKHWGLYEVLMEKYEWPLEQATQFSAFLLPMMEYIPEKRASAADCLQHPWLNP
Nature of the assay: ScanMAX Kinase panel (DiscoverX). The class given is binding. To be noted: read-out: % Cont @ 1 μM. As for the experimental part:
as §1, §2, §3, §4, §5, §6

Assay [2] addresses T10, TTK (Homo sapiens, UniProt P33981).
T10 sequence (P33981 1-857): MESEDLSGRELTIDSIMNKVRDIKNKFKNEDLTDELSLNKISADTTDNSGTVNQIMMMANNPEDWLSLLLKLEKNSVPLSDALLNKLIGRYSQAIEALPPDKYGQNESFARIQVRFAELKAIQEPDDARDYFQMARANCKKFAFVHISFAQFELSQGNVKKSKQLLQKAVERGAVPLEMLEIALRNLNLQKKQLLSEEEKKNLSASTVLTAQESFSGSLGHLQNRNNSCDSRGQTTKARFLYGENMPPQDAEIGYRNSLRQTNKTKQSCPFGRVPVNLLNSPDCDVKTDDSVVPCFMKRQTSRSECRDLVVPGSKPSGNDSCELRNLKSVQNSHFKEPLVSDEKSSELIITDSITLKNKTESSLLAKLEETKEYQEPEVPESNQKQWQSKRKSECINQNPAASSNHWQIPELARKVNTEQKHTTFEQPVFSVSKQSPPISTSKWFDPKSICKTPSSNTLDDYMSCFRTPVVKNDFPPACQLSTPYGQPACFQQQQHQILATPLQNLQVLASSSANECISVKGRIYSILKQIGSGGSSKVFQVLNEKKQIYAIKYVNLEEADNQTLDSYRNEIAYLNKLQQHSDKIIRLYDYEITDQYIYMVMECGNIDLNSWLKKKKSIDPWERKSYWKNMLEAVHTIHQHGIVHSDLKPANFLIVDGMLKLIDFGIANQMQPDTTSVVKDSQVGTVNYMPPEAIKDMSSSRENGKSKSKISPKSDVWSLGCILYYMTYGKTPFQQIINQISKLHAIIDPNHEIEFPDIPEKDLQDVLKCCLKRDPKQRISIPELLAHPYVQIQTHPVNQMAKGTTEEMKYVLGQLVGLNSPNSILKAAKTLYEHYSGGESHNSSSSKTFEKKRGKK
The assay can be described thus: TTK enzyme activity, ADP-Glo kinase assay. The class given is biochemical. The arrangement: purchased SignalChem T20-10G. To be noted: purified human TTK, ATP 10 μM, 25° C., 2 hours. The method, boiled down: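 Purified human TTK (25 ng) incubated with 10 μM ATP and substrate (0.2 μg) for 2 h at 25 °C in Tris-HCl pH 7.4, MgCl2, BSA, DTT buffer. ADP formation read by ADP-Glo; inhibition calculated against untreated solvent control.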
A general note: In ADP-Glo the light output rises with the ADP produced.

For a further assay, the target named is LRRK2 (Homo sapiens, UniProt Q5S007). The assay can be described thus: ScanMAX Kinase panel (DiscoverX). In kind it is binding. Also on record: purchased DiscoverX Corp. (ScanMAX Kinase panel, commissioned). To be noted: read-out: % Cont @ 1 μM. As for the experimental part:
as §1, §2, §3, §4, §5, §6

Assay [3] addresses T10, TTK. The assay can be described thus: ScanMAX Kinase panel (DiscoverX). In kind it is binding. The arrangement: purchased DiscoverX Corp. (ScanMAX Kinase panel, commissioned). To be noted: read-out: % Cont @ 1 μM. Here is the method: as §1, §2, §3, §4, §5, §6

T5 sequence (P53779 whole entry): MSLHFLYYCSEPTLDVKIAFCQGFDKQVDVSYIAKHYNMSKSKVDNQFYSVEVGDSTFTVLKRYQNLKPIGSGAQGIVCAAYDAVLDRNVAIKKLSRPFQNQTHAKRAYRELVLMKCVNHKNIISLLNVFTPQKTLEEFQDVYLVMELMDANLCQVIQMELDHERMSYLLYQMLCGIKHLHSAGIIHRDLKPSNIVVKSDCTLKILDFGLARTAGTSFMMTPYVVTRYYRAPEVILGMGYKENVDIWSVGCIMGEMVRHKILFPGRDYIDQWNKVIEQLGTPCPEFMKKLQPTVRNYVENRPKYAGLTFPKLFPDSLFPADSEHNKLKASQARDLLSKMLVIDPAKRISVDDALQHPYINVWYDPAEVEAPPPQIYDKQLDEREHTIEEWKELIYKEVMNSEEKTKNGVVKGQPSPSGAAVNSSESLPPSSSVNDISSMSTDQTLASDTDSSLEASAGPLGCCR
Sequence of LRRK2 (Q5S007 whole entry): as the sequence (Q5S007 whole entry G2019S) above, with S2019G counted along it

In the case of `COc1cc(N2CCCC2=O)ccc1Nc1cc(NC2CCCCC2)c2c(C#N)c[nH]c2n1` [Example 64, 4-(cyclohexylamino)-6-((2-methoxy-4-(2-oxopyrrolidin-1-yl)phenyl)amino)-1H-pyrrolo[2,3-b] pyridine-3-carbonitrile], the remaining binding at 1 µM in assay [1] was 26%; on GRK4, 26%; on MAPKAPK2 it was 28%; at SRPK3 it was 28%. For the same molecule, the “% Cont @ 1 μM” value is listed as 0.9% at JNK1, 4.1% at JNK2 and 1.7% on JNK3. The percent of control (kinase binding) at 1 µM at LRRK2(G2019S) is 17%. The figures for the percent of control binding at 1 µM on RIPK5 and at LRRK2 were 30% and 14%, respectively. The IC50 against TTK [2] was below 50 nM. The percent of control at 1 µM at TTK [3] was found to be 0.25%.

On to `COc1cc(-c2ccnn2C)ccc1Nc1nc(NC2CCCCC2)c2c(C#N)c[nH]c2n1` [Example 7, 4-(cyclohexylamino)-2-((2-methoxy-4-(1-methyl-1H-pyrazol-5-yl)phenyl)amino)-7H-pyrrolo[2,3-d] pyrimidine-5-carbonitrile], for which the remaining binding at 1 µM came out at 28% in assay [1], 29% on GRK4, 28% on MAPKAPK2 and 30% at SRPK3. Moreover, the entries for the “% Cont @ 1 μM” value at JNK1, at JNK2 and at JNK3 were 2%, 13% and 4.3%, respectively. In addition, the percent of control (kinase binding) at 1 µM at LRRK2(G2019S) amounted to 2.7%. In addition, the values for the percent of control binding at 1 µM at RIPK5 and on LRRK2 were 17% and 4.8%, respectively. The IC50 on TTK [2] was below 50 nM. Further, the percent of control at 1 µM at TTK [3] was 0.25%.

The IC50 is the concentration that inhibits the measured activity by half. Lower therefore signals inhibition by little substance.
